Measurements as given in patent US20160199481A1 (priority 2013, published 2016).
“Also recorded” adds a separate entry of the source.

Experiments:
WT HA/WT NA virus [1] = type: cell-based, influenza A
WT HA/WT NA virus [2] = type: cell-based, influenza A; remark: listed apart in the source

## oseltamivir
WT HA/WT NA virus [1]
  neutralization of infectivity (percent infectivity remaining): resistant to neutralization by oseltamivir; also recorded: uninhibited at all concentrations tested
WT HA/WT NA virus [2]
  inhibition of agglutination by oseltamivir: uninhibited at all oseltamivir concentrations tested
